Measured values: ChEMBL document CHEMBL1201862, “PubChem BioAssay data set” (2004)
Calls of active or inactive are those of the source.

Columns and labels:
Keap1/Nrf2 = Keap1/Nrf2 (Homo sapiens, UniProt Q14145); experiment: Keap1-Nrf2 protein-protein interaction inhibitors, dose response, biochemical, fluorescence polarization, cherry-picked samples (AID 588683)
[1] = molecular target: UDP-galactopyranose mutase (Mycobacterium tuberculosis, UniProt P9WIQ1); experiment: Inhibitors of Mycobacterium tuberculosis UDP-galactopyranose mutase (UGM) enzyme Measured in Biochemical System Using Plate Reader - 2105-02_Inhibitor_Dose_CherryPick_Activity. [Related pubchem assays (depositor defined):AID504439]
Sequence of UDP-galactopyranose mutase (P9WIQ1 whole entry): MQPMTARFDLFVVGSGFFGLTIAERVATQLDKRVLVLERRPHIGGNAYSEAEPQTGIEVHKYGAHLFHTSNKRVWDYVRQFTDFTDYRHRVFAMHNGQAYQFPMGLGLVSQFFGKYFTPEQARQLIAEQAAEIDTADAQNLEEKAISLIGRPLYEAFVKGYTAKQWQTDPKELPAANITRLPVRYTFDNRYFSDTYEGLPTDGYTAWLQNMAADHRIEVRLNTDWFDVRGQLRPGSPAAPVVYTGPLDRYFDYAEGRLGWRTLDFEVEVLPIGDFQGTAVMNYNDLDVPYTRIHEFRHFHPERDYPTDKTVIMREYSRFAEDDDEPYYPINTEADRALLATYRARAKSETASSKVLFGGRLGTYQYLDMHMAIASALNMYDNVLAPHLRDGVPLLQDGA

HeLa = experiment: HeLa cell cytotoxicity, dose response, cytotoxicity control for MITF activator project, CellTiter-Glo luminescence, cherry-pick samples (AID 540259); assay type: functional, cell-based; details: Homo sapiens
Vero [2] = experiment: cells; assay type: functional, cell-based; details: Chlorocebus sabaeus
Vero [3] = experiment: cells; assay type: functional; details: Chlorocebus sabaeus
cells = details: HEK293
[4] = Luminescence Cell-Based Dose Retest to Confirm Inhibitors of Cancer Stem Cells. [Related pubchem assays (depositor defined):AID2717, AID2721]; assay type: functional; details: Homo sapiens
ORF 73 = ORF 73 (Human herpesvirus 8, UniProt O40947); experiment: inhibitors of C-LANA binding to LBS DNA, dose response, biochemical, fluorescence polarization, cherry-picked samples (AID 504725); design: species or system Human gammaherpesvirus 8;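 further: fluorescence polarization of a labeled DNA duplex reporting LANA DNA binding; potency is for inhibitors that block LANA binding to the DNA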
Sequence of ORF 73 (O40947 whole entry): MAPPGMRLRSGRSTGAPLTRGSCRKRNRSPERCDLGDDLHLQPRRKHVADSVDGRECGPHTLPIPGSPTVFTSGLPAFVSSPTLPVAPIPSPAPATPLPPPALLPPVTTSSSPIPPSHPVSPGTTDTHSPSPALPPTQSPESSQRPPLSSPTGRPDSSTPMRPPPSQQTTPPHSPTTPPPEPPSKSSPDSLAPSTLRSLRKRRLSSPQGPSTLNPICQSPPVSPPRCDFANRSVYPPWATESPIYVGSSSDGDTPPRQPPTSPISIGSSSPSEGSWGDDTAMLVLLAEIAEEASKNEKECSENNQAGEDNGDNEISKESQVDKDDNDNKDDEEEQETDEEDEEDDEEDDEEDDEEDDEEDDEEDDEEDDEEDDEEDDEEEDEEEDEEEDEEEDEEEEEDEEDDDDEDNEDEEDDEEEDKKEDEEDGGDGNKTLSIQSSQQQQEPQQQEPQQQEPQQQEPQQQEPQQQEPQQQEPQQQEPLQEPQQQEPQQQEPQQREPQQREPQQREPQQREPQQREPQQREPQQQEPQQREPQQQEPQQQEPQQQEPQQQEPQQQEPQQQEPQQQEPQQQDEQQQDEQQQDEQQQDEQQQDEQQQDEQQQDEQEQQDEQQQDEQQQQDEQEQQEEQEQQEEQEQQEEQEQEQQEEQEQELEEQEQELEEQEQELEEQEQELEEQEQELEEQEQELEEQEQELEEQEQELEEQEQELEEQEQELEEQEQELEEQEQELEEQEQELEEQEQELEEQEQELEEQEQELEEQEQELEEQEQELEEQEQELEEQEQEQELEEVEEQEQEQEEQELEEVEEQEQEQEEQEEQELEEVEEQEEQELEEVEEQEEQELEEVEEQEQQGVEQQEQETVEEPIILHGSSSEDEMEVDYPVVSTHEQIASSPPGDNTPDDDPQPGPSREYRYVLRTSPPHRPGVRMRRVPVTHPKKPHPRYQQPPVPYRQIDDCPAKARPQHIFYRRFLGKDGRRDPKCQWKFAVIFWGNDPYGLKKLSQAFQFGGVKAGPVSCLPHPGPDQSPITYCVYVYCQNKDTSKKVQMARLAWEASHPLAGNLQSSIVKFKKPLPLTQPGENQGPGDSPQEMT

Beta Lactamase = Beta Lactamase (Pseudomonas aeruginosa, UniProt Q932Y6); experiment: beta-lactamase reporter inhibitor potency, dose response, artefact control for TLR9-MyD88 binding inhibitor project, BLA reporter cells, FRET fluorescence (AID 588341); assay type: cell-based;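 further: cell based assay in CHO-K1 cells stably expressing beta-lactamase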
Sequence of Beta Lactamase (Q932Y6 whole entry): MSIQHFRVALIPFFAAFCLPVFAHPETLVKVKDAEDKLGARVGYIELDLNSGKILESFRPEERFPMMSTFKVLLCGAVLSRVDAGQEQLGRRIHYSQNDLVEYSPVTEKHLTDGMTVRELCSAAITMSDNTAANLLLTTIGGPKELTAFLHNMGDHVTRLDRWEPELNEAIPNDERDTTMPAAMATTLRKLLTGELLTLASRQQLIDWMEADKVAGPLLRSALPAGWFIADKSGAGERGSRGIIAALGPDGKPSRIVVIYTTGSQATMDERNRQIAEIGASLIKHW

[5] = inhibitors of intracellular T. cruzi replication, confirmation, NIH3T3 host cells, beta-gal luminescence (AID 2044); assay type: functional, cell-based;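 further: intracellular parasites grown in NIH/3T3 mouse fibroblasts as host cells; luminescent beta-galactosidase reporter signal from transgenic T. cruzi replicating inside host cells; inhibitors lower the luminescence signal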
Protein RecA = molecular target: T1, Protein RecA (Mycobacterium tuberculosis, UniProt P9WHJ3); experiment: Fluorescence Cell-Free Homogeneous Dose Retest to Identify Inhibitors of RecA-Intein Splicing Activity. [Related pubchem assays (depositor defined):AID2097, AID2223, AID489010, AID492950]; assay type: functional
T1 sequence (P9WHJ3 whole entry): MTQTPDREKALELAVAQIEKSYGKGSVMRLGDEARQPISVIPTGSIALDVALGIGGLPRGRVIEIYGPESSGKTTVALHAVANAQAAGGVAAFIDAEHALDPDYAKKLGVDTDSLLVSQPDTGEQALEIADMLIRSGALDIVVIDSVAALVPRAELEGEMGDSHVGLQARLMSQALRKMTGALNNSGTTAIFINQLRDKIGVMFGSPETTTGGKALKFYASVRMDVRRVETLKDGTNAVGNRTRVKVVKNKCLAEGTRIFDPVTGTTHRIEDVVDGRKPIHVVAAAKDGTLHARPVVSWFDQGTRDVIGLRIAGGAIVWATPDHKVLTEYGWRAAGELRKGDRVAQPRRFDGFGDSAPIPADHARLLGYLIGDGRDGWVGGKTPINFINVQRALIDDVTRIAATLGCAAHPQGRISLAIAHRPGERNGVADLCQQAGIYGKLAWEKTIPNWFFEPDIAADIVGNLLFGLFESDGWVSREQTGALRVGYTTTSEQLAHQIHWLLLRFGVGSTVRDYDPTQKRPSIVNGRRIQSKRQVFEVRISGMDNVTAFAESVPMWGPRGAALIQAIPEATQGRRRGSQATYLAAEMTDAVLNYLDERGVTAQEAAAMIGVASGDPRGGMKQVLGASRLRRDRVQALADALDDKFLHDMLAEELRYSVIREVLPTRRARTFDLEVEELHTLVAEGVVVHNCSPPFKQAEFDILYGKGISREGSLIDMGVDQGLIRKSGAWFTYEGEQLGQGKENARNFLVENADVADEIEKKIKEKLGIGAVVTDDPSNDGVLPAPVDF

[6] = molecular target: T2, Type-1 angiotensin II receptor (Homo sapiens, UniProt P30556); experiment: AT1 receptor antagonists, dose response, selectivity assay for APJ receptor antagonist project, cell-based, uHTS hits (AID 463214); assay type: functional;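 further: antagonist potency against angiotensin II stimulated AT1 response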
T2 sequence (P30556 whole entry): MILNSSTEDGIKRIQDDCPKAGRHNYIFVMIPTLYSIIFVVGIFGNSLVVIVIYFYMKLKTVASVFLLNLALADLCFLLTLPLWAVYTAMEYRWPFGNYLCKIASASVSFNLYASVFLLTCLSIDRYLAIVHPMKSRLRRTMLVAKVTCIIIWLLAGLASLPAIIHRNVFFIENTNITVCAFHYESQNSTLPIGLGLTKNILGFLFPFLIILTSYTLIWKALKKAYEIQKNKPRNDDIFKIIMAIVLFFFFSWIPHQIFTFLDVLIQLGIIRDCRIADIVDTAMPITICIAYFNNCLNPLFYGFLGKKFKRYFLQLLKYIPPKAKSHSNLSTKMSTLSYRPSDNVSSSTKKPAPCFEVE

Beta-galactosidase = Beta-galactosidase (Escherichia coli, UniProt Q8VNN2); experiment: PubChem AID 485352; assay type: functional
Sequence of Beta-galactosidase (Q8VNN2 whole entry): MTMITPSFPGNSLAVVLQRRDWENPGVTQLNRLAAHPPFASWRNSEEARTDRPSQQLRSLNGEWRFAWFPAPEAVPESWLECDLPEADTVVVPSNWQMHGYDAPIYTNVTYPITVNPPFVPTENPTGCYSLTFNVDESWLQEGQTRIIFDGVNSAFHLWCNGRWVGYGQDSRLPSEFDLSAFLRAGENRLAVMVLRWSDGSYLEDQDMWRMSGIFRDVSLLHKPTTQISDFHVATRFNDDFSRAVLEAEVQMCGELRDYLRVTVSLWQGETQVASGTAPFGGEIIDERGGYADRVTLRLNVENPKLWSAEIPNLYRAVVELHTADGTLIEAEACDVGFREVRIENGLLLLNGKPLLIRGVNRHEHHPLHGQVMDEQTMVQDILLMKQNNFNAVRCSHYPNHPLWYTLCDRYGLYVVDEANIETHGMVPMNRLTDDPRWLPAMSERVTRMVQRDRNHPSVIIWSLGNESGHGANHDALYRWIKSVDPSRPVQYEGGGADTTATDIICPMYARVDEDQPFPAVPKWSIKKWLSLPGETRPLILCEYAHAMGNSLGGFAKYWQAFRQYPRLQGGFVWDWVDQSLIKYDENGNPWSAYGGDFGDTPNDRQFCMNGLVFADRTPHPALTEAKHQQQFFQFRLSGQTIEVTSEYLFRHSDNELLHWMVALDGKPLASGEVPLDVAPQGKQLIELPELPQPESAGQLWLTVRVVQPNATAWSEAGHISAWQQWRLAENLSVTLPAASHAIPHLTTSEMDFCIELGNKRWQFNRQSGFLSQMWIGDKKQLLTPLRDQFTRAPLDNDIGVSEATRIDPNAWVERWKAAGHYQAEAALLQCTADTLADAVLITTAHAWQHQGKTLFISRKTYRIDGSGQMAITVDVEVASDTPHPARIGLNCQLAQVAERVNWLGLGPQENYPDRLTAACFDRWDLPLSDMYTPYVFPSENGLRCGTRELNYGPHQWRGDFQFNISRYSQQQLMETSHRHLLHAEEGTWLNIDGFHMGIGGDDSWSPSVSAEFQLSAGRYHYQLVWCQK

[7] = Shn3 3'UTR reporter inhibitors, dose response, cell-based, Clone20 osteoblasts, firefly luciferase, cherry-picked (AID 624132); assay type: functional;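 further: firefly luciferase luminescence from reporter carrying the Shn3 3'UTR in osteoblasts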
HEK293 = experiment: inhibitors of LMP1-driven NF-kB reporter, dose response, cell-based, HEK293, luciferase, cherry-pick (AID 588343); assay type: functional; details: Homo sapiens
[8] = molecular target: T3, Replicative DNA helicase DnaB (Mycobacterium tuberculosis, UniProt P9WMR3); experiment: DnaB intein splicing inhibitors, dose response, biochemical, cell-free fluorescence (AID 449749); assay type: functional
T3 sequence (P9WMR3 whole entry): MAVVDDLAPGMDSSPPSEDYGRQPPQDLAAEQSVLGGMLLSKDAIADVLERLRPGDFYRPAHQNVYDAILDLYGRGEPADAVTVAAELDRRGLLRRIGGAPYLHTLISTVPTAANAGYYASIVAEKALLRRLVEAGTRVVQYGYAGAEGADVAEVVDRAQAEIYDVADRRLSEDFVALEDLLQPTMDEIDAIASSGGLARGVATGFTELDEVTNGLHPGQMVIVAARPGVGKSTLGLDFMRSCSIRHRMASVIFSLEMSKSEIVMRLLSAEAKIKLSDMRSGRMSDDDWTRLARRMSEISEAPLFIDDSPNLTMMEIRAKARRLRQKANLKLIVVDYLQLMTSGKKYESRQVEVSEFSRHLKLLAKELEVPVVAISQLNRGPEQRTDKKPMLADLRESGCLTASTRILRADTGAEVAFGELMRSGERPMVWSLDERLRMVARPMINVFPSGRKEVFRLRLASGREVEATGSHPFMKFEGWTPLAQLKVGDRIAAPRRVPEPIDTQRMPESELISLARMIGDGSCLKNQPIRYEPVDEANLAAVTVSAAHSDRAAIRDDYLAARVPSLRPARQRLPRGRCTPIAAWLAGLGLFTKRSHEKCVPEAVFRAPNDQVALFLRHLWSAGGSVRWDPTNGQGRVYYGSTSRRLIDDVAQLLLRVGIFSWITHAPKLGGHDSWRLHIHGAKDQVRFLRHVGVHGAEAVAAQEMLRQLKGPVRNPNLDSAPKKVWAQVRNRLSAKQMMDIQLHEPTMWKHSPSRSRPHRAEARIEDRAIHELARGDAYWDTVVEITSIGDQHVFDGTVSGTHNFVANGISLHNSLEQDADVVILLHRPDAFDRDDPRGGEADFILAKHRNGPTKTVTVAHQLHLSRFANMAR

CHO = experiment: cytotoxicity in TLR9-MyD88 CHO cells, dose response, cytotoxicity control for TLR9-MyD88 binding inhibitor project, cell-based, luminescence (AID 588339); assay type: functional, hamster; details: Cricetulus griseus;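 further: CHO cells stably coexpressing TLR9 and MyD88 fusions from primary screen; compound exposure lasted 48 hours before viability readout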
INS1 = experiment: beta cell apoptosis inhibitors, cytokine rescue, dose response, luminescence, retest (AID 449756); assay type: functional, cell-based; details: Rattus norvegicus;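 further: cell death triggered by IL-1 beta plus TNF-alpha plus IFN-gamma mixture; protective hits raise ATP signal compared with cytokine alone wells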
[9] = HepG2 cell cytotoxicity, dose response, cytotoxicity control for Shn3 inhibitor project, CellTiter-Glo, cherry-picked (AID 624134); assay type: functional, cell-based
[10] = cytotoxicity toward NIH3T3 fibroblasts, dose response, counter-screen, cell-based, ATP luminescence, mouse fibroblasts (AID 2010); assay type: functional;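 further: cells exposed to compound for about 90 hours before reading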
[11] = control 3'UTR Renilla luciferase suppression, dose response, counter-screen for Shn3 inhibitor project, cell-based, Clone20-Shn3RL, cherry-picked (AID 624133); assay type: functional
BJ [12] = experiment: cytotoxicity toward Ras-transformed BJeLR fibroblasts, dose response, cell-based, alamar blue fluorescence, cherrypicked samples (AID 2631); assay type: functional; details: Homo sapiens;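 further: confirmatory dose-response assay in RAS-dependent BJ fibroblasts engineered with TERT, LT and ST, with cytotoxicity read by fluorescence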
BJ [13] = experiment: cytotoxicity toward BJ-TERT-LT-ST fibroblasts, dose response, cell-based, RAS-independent, luminescence (AID 1935); assay type: functional; details: Homo sapiens;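 further: BJ fibroblasts immortalized with TERT plus LT and ST oncogenes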
BJ [14] = experiment: cytotoxicity toward BJ-TERT fibroblasts, dose response, cell-based, RAS-independent, luminescence (AID 1933); assay type: functional; details: Homo sapiens
BJ [15] = experiment: cells; assay type: functional, cell-based; details: Homo sapiens
[16] = cytotoxicity toward DRD oncogenic fibroblasts, dose response, cell-based, non-viral oncogenic, luminescence (AID 1934); assay type: functional; details: Homo sapiens
[17] = molecular target: T4, Endoribonuclease toxin MazF (Escherichia coli K-12, UniProt P0AE70); experiment: MazF toxin RNase activators, dose response, biochemical, fluorescence, single-stranded RNA substrate, uHTS hits (AID 588481); assay type: functional
T4 sequence (P0AE70 whole entry): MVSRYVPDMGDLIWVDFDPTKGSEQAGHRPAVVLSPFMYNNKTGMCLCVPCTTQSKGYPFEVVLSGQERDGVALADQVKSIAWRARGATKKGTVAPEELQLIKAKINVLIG

[18] = molecular target: T4, Endoribonuclease toxin MazF; experiment: fluorescent RNA oligo signal without MazF, dose response, counter-screen for MazEF activator project, biochemical, fluorescence, single-stranded RNase substrate (AID 588502); assay type: functional

Sequence of Keap1/Nrf2 (Q16236 whole entry): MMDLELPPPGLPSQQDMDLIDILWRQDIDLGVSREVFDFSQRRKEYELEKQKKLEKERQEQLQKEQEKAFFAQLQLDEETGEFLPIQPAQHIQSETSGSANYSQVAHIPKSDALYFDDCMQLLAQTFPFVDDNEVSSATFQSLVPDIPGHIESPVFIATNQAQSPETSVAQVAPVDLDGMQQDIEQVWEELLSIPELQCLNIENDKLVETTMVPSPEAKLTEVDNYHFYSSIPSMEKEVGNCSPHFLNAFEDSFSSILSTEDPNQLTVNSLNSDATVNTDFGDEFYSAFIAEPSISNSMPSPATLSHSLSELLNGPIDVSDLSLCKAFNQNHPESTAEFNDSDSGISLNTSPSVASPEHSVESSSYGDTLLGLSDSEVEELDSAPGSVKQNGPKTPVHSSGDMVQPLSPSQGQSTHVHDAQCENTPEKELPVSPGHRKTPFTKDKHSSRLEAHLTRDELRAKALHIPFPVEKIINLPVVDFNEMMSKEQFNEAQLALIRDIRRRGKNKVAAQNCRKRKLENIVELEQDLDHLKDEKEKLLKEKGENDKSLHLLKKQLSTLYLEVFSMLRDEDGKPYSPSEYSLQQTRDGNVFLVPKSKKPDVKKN
Sequence of Keap1/Nrf2 (Q14145 whole entry): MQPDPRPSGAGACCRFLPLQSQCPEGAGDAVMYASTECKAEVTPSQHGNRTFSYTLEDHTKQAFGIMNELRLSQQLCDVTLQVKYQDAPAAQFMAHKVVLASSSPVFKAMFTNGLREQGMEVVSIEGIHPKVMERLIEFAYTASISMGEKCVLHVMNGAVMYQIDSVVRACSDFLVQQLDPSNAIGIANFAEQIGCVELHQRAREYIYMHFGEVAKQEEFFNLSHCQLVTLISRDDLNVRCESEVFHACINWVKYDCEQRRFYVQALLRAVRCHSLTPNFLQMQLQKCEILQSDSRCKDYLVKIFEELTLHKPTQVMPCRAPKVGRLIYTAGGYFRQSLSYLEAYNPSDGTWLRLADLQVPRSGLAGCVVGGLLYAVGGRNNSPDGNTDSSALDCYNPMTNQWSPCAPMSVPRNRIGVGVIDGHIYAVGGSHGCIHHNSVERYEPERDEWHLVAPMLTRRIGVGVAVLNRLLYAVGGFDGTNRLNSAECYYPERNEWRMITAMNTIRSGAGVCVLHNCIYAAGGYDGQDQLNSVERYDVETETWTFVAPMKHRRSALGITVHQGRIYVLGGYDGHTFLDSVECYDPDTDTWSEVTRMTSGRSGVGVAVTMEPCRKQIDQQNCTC

Question: For `COc1ccc(N=Nc2nc3cc(Br)c(Br)cc3n2C)c(OC)c1`, which AC50 (Keap1/Nrf2) is on record?
Answer: The AC50 was > 52 µM (inactive).

Question: And the AC50 [1]?
Answer: The AC50 was 247 µM (active).

Question: With `Cc1cc(C)n(-c2nnc(NC(C)(C)C)nn2)n1` as the compound, how does the AC50 (HeLa) read?
Answer: Its AC50 is 62.6 µM (active).

Question: With `CN(C)CCCNc1ncnc2c1c(-c1ccccc1)cn2-c1ccccc1` as the compound, how does the IC50 (Vero [2]) read?
Answer: Its IC50 is 23.9 µM (active).

Question: And the CC50 (Vero [3])?
Answer: The CC50 was > 25 µM (active).

Question: With `CCN(CC)c1ccc2cc(S(=O)(=O)c3ccc(Cl)cc3)c(=O)oc2c1` as the compound, how does the AC50 (cells) read?
Answer: Its AC50 is 35.7 µM (active).

Question: What about the AC50 [4] of the same compound?
Answer: The AC50 was 0.246 µM (active).

Question: What about the AC50 (Keap1/Nrf2) of the same compound?
Answer: Its AC50 is 11.8 µM (active).

Question: What about the AC50 (ORF 73) of the same compound?
Answer: The AC50 was 19.1 µM (active).

Question: What about the AC50 [1] of the same compound?
Answer: Its AC50 is 10.8 µM (active).

Question: For `CS(=O)(=O)c1ncc(Cl)c(C(=O)Nc2ccc(OC(F)F)cc2)n1`, which IC50 (Beta Lactamase) is on record?
Answer: Its IC50 is 6.65 µM (active).

Question: And the EC50 [5]?
Answer: Its EC50 is 1.52 µM (active).

Question: What about the EC50 (Protein RecA) of the same compound?
Answer: The EC50 was 3.72 µM (active).

Question: And the IC50 [6]?
Answer: Its IC50 is 7.79 µM (active).

Question: What about the EC50 (Beta-galactosidase) of the same compound?
Answer: Its EC50 is > 40 µM (inactive).

Question: What about the AC50 [7] of the same compound?
Answer: The AC50 was 0.682 µM (active).

Question: What about the AC50 (HEK293) of the same compound?
Answer: Its AC50 is 7.88 µM (active).

Question: And the AC50 [8]?
Answer: The AC50 was 3.68 µM (active).

Question: What about the IC50 (CHO) of the same compound?
Answer: Its IC50 is 2.17 µM (active).

Question: What about the AC50 (INS1) of the same compound?
Answer: The AC50 was 8.07 µM (active).

Question: What about the AC50 [9] of the same compound?
Answer: The AC50 was 22.1 µM (active).

Question: What about the EC50 [10] of the same compound?
Answer: The EC50 was 4.44 µM (active).

Question: And the AC50 [11]?
Answer: Its AC50 is 7.27 µM (active).

Question: Which EC50 (BJ [12]) does the source give for `CCN1CCN(CCNC(=O)c2ccc(/C=C3/Sc4ccccc4N(Cc4ccccc4C)C3=O)cc2)CC1` here?
Answer: The EC50 was > 133 µM (inconclusive).

Question: What about the EC50 (BJ [13]) of the same compound?
Answer: Its EC50 is > 150 µM (inconclusive).

Question: What about the EC50 (BJ [14]) of the same compound?
Answer: The EC50 was 6.6 µM (active).

Question: And the EC50 (BJ [15])?
Answer: The EC50 was 13.7 µM (active).

Question: What about the EC50 [16] of the same compound?
Answer: The EC50 was 9.43 µM (active).

Question: For `O=C(N/N=C/c1cccnc1)c1ccc(NC(=O)C(c2ccccc2)c2ccccc2)cc1`, which EC50 (BJ [12]) is on record?
Answer: Its EC50 is > 66.7 µM (inactive).

Question: What about the EC50 (BJ [13]) of the same compound?
Answer: The EC50 was > 150 µM (not active).

Question: What about the EC50 (BJ [14]) of the same compound?
Answer: Its EC50 is > 150 µM (not active).

Question: And the EC50 (BJ [15])?
Answer: Its EC50 is 0.949 µM (inconclusive).

Question: What about the EC50 [16] of the same compound?
Answer: Its EC50 is > 150 µM (not active).

Question: What about the AC50 (INS1) of the same compound?
Answer: Its AC50 is 0.578 µM (active).

Question: What about the EC50 [17] of the same compound?
Answer: Its EC50 is 40.8 µM (inactive).

Question: What about the EC50 [18] of the same compound?
Answer: Its EC50 is > 99 µM (inactive).

Question: What does the source list for `CCN(CC)C(=O)C1CCCc2c1[nH]c1ccc(Cl)cc21` (centres undefined)?
Answer: IC50 (Vero [2]): 3.28 µM (active); CC50 (Vero [3]): > 25 µM (active)

Question: Which AC50 (HeLa) does the source give for `CC1CCN(c2ccc3c(c2)S(=O)(=O)c2ccccc2C3=O)CC1` here?
Answer: Its AC50 is 39.7 µM (active).
